# Assay results as given in ChEMBL document CHEMBL5465560, “Selectivity Literature for EUbOPEN Chemogenomic Library” (2024).
# Experiments:
# [1] = target: T1, Tyrosine-protein kinase TXK (Homo sapiens) (UniProt P42681); assay: Selectivity interaction (KinomeScan (DiscoverX)) EUB0001049a TXK; details: at 1 µM
# T1 sequence (whole entry): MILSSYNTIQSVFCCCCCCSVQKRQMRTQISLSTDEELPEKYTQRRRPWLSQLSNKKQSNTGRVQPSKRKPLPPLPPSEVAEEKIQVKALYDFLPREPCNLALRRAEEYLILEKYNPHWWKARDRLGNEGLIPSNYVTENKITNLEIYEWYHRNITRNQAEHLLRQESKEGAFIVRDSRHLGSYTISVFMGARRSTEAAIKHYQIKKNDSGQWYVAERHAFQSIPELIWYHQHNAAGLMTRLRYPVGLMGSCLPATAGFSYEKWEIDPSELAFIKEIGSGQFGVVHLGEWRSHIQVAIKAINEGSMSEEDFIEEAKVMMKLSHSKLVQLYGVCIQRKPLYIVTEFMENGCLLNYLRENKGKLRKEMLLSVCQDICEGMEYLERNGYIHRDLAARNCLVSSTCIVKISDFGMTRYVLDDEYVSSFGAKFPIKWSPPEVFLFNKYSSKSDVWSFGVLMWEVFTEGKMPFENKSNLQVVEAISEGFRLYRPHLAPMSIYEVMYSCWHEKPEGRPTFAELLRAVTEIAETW
# [2] = target: Interleukin-1 receptor-associated kinase 1 (Homo sapiens) (UniProt P51617); assay: Selectivity interaction (KinomeScan (DiscoverX)) EUB0001079a IRAK1; details: at 1 µM
# [3] = target: Serine/threonine-protein kinase Chk2 (Homo sapiens) (UniProt O96017); assay: Selectivity interaction (Kinase panel (DSF assay)) EUB0001558a CHEK2
# [4] = target: T2, Histone-arginine methyltransferase CARM1 (Homo sapiens) (UniProt Q86X55); assay: Selectivity interaction (Transferase panel (protein, RNA, and DNA methyltransferases. and EP300 (acetyltransferase))) EUB0000270b CARM1
# T2 sequence (whole entry): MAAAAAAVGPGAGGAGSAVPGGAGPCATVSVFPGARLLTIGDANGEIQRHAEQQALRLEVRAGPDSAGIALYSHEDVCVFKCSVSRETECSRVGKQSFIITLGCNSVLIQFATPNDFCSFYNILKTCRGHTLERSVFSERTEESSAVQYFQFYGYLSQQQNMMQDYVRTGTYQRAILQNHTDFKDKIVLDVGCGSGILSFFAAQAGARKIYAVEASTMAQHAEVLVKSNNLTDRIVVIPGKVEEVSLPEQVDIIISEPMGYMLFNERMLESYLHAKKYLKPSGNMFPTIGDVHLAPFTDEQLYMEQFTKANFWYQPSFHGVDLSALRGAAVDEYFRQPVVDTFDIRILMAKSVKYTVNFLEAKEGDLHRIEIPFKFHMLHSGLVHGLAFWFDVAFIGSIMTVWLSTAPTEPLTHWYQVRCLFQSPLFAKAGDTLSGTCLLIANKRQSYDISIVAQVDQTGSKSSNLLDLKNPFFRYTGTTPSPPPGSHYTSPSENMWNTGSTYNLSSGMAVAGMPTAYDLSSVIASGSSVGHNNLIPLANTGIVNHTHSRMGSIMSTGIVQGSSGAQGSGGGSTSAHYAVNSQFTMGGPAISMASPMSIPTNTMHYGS
# [5] = target: DNA (cytosine-5)-methyltransferase 3B (Homo sapiens) (UniProt Q9UBC3); assay: Selectivity interaction (Transferase panel (protein, RNA, and DNA methyltransferases. and EP300 (acetyltransferase))) EUB0000270b DNMT3B
# [6] = target: Ribosomal protein S6 kinase alpha-6 (Homo sapiens, UniProt Q9UK32); assay: Selectivity interaction (KinomeScan (DiscoverX)) EUB0000092b RPS6KA6; details: at 10 µM
# [7] = target: Ribosomal protein S6 kinase alpha-1 (Homo sapiens, UniProt Q15418); assay: Selectivity interaction (Ambit KINOMEscan and KiNATiv profiling in Jurkat cells) EUB0000090b RPS6KA1; format: cell-based; details: at 1 µM
# [8] = target: TGF-beta receptor type-2 (Homo sapiens) (UniProt P37173); details: at 10 µM
# [9] = target: Mitogen-activated protein kinase kinase kinase 20 (Homo sapiens) (UniProt Q9NYL2); assay: Selectivity interaction (KinomeScan (DiscoverX)) EUB0000695a MAP3K20; details: at 100 nM
# [10] = target: BMP-2-inducible protein kinase (Homo sapiens) (UniProt Q9NSY1); assay: Selectivity interaction (KinomeScan (DiscoverX)) EUB0000607a BMP2K; details: at 10 µM
# [11] = target: Serine/threonine-protein kinase PLK3 (Homo sapiens, UniProt Q9H4B4); assay: Selectivity interaction (Kinase panel (Z-LYTE Assay)) EUB0001632a PLK3; details: at 10 µM
# Chain of Serine/threonine-protein kinase PLK3 (Q9H4B4 whole entry, looked up): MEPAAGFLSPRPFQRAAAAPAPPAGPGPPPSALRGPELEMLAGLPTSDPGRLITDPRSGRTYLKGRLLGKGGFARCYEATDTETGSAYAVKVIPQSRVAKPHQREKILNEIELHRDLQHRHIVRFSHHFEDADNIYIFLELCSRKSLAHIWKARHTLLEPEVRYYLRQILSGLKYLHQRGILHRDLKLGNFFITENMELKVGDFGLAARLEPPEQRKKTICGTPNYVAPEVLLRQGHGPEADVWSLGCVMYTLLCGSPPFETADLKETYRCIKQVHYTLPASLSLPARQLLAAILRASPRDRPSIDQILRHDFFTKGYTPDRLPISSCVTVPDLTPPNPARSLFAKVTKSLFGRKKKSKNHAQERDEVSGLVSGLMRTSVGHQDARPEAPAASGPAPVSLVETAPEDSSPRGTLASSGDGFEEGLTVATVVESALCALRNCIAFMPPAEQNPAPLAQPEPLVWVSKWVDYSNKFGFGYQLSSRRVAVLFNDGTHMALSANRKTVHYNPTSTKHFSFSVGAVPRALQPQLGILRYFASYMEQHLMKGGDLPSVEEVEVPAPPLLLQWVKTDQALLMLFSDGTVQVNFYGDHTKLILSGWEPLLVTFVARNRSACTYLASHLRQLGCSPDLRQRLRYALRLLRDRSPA
# Chain of Interleukin-1 receptor-associated kinase 1 (Homo sapiens) (P51617 whole entry, looked up): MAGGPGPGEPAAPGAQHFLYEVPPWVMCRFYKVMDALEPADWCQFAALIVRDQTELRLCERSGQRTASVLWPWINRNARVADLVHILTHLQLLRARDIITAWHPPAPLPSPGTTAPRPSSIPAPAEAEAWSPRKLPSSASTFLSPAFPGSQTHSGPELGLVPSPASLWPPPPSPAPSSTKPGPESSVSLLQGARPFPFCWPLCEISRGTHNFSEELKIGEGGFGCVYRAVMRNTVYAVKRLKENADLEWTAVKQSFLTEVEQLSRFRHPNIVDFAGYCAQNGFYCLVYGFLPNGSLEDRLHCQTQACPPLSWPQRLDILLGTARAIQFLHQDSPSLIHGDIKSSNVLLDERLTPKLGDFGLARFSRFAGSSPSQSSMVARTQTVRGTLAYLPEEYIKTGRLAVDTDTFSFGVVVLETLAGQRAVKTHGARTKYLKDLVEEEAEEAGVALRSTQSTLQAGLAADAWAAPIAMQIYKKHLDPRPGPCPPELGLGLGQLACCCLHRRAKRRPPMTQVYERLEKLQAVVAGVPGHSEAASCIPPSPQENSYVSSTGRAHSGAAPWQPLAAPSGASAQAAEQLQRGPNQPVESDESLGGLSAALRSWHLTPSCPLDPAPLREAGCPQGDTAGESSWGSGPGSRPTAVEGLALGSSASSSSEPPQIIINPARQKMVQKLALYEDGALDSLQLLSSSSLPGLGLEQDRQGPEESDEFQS
# Chain of Mitogen-activated protein kinase kinase kinase 20 (Homo sapiens) (Q9NYL2 2-800 limits assumed): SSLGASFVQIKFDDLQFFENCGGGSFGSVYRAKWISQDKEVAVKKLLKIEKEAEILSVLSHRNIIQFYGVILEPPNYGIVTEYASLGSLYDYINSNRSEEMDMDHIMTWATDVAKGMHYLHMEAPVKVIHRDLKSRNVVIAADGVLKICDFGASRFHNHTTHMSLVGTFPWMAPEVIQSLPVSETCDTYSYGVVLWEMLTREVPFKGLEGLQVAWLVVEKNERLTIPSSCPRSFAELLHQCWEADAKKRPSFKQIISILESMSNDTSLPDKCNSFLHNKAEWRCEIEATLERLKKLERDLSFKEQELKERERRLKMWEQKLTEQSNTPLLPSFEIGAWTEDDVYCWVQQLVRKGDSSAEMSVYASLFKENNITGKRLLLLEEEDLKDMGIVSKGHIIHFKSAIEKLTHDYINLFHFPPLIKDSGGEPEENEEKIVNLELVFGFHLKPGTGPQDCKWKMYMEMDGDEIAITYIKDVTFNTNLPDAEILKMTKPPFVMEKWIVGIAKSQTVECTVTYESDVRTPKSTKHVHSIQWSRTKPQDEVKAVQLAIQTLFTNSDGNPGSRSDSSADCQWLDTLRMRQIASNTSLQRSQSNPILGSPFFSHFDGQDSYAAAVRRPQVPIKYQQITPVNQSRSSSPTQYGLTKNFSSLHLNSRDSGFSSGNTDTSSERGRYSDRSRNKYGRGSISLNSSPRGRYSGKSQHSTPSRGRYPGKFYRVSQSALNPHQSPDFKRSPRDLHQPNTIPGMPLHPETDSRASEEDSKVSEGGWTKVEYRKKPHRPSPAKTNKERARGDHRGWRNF
# Chain of TGF-beta receptor type-2 (Homo sapiens) (P37173 whole entry): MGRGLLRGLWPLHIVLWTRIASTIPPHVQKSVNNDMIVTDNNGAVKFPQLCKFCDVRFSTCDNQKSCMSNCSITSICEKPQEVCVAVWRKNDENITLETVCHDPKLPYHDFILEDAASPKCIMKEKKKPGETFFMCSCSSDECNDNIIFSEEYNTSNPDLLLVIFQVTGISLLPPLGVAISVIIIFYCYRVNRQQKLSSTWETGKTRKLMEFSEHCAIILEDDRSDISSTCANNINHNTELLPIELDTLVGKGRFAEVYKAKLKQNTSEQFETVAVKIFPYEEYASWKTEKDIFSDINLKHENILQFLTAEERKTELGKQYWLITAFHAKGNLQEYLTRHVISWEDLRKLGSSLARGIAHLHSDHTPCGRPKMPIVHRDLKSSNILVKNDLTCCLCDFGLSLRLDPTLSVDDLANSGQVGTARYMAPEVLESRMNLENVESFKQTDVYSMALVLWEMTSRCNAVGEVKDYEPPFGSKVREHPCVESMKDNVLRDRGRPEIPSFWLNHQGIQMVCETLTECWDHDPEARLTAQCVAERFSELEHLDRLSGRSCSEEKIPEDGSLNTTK
# Chain of BMP-2-inducible protein kinase (Homo sapiens) (Q9NSY1 whole entry, looked up): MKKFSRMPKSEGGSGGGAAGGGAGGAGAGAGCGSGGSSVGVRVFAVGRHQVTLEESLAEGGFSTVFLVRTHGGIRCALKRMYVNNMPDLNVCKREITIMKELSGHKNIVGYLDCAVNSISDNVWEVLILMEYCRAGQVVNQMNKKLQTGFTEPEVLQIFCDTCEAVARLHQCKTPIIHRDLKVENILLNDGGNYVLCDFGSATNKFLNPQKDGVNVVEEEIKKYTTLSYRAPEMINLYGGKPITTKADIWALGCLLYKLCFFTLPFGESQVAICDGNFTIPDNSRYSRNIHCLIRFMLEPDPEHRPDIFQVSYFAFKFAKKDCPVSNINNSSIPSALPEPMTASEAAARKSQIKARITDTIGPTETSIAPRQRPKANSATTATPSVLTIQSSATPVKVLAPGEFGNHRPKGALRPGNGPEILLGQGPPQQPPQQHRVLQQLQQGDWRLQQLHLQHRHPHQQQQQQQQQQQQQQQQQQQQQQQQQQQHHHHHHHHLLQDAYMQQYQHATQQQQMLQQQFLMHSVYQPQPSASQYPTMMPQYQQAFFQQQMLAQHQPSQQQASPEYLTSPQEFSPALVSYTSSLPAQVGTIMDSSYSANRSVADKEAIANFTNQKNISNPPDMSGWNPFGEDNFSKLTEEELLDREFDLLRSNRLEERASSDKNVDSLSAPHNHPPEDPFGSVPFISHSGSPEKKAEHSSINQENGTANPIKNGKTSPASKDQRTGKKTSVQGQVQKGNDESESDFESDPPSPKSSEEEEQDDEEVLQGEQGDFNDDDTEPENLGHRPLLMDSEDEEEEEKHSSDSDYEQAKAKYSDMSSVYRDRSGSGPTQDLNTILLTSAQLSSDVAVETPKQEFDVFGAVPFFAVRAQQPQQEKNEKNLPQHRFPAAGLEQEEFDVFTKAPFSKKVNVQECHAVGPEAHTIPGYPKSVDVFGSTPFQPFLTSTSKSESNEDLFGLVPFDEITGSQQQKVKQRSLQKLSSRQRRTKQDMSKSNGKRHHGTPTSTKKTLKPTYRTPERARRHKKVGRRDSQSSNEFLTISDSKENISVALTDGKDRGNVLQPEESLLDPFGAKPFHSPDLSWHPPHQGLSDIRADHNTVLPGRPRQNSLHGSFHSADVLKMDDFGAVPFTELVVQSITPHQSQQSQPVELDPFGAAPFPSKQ
# Chain of Serine/threonine-protein kinase Chk2 (Homo sapiens) (O96017 whole entry): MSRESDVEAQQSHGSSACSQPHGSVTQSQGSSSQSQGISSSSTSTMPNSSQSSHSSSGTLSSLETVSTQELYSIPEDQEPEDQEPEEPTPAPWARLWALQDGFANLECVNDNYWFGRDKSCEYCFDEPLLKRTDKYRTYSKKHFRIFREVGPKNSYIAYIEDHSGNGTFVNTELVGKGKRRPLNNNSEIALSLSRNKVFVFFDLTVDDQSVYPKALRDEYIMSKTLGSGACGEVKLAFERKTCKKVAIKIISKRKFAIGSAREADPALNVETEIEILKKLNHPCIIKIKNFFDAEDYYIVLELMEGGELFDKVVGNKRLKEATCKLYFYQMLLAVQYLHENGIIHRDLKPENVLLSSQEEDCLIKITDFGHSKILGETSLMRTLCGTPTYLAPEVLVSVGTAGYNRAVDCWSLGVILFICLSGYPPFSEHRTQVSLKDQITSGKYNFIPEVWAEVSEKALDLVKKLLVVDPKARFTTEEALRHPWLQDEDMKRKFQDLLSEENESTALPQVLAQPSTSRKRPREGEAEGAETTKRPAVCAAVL
smiles,measurement,setting,value
COc1cc(Nc2nc(C)cc(-c3cnn4nc(OC)ccc34)n2)cc(C(F)(F)F)c1,% of control,[1],91%
Nc1cnc(N2CCc3cc(S(=O)(=O)Nc4c(F)cc(Cl)cc4F)cc(N4CCCC4=O)c32)nc1 [TP-020n],% of control,[2],100%
CC(C)(O)[C@H](F)CN1Cc2cc(NC(=O)c3cnn4cccnc34)c(N3CCOCC3)cc2C1=O,dTM,[3],1.5 K
Cc1cc(CN)cc(C)c1-c1ncn(C)c1-c1cncn1C,% activity,[4]; at 1 µM,> 90%
same,% activity,[4]; at 10 µM,> 80%
same,% activity,[5]; at 1 µM,> 90%
same,% activity,[5]; at 10 µM,> 80%
CCC(=O)N1CCN(c2ccc(-n3c(=O)ccc4cnc5ccc(-c6cnc7ccccc7c6)cc5c43)cc2C(F)(F)F)CC1,% of control,[6],86%
CN(C)C/C=C/C(=O)Nc1ccc(C(=O)N2CCCC(Nc3ncc(Cl)c(-c4c[nH]c5ccccc45)n3)C2)cc1 (stereo not drawn),% of control,[7],89%
Cc1cc([C@@H](C)Nc2ccccc2C(=O)O)c2nc(N3CCOCC3)cc(=O)n2c1 [AZD-6482],% of control,[8],95%
Cc1cc(F)c(C(=O)Nc2cccc(-c3nncn3C(C)C)n2)cc1-n1cnc(C2CC2)c1,% of control,[9],96%
CNC(=O)Nc1ccc(-c2nc(N3CC4CCC(C3)O4)c3cnn(C4CCC5(CC4)OCCO5)c3n2)cc1,% of control,[10],85%
Cn1cc(-n2cnc3c(NCc4nc5cc(Cl)c(Cl)cc5[nH]4)nc(N4CCOCC4)nc32)cn1,% of control,[11],0.242%
